Paper PMC11200585, “Prospects for Prostate Cancer Chemotherapy: Cytotoxic Evaluation and Mechanistic Insights of Quinolinequinones with ADME/PK Profile” (Biomedicines, 2024)

How the values were obtained:
Format in all cases: cell-based, human
SNB-75 [1] = test: NCI-60 five-dose assay (CNS cancer); settings: 48 h, SRB
SK-OV-3 [2] = test: NCI-60 five-dose assay (ovarian cancer); settings: 48 h, SRB
NCI-H460 = test: NCI-60 five-dose assay (non-small cell lung cancer); settings: 48 h, SRB
RPMI-8226 = test: NCI-60 five-dose assay (leukemia); settings: 48 h, SRB
OVCAR-4 = test: NCI-60 one-dose screen (ovarian cancer); settings: 10 µM single dose, 48 h
Procedure: (§1) The obtained quinolinequinones were submitted to NCI, Bethesda, USA, and, as per standard protocol of NCI, all compounds were evaluated for their antiproliferative activity at single-dose assay (10 µM concentration in DMSO) on a panel of 60 cancer cell lines derived from leukemia, non-small-cell lung, colon, CNS, melanoma, ovarian, renal, prostate, and breast, as per protocol. Tested compounds were added to the microtiter culture plates followed by incubation for 48 h at 37 °C. Sulforhodamine B (SRB), a protein-binding dye, is used for endpoint determination. The percent of the growth of the treated cells was determined in comparison to the untreated control cells and the results of each tested compound were reported. Data from one-dose experiments pertain to the percentage growth at 10 μM [16, 17, 18].

IGROV1 = test: NCI-60 one-dose screen (ovarian cancer); settings: 10 µM single dose, 48 h
Procedure: as §1

OVCAR-8 = test: NCI-60 one-dose screen (ovarian cancer); settings: 10 µM single dose, 48 h
Procedure: as §1

SK-OV-3 [3] = test: NCI-60 one-dose screen (ovarian cancer); settings: 10 µM single dose, 48 h
Procedure: as §1

OVCAR-5 = test: NCI-60 one-dose screen (ovarian cancer); settings: 10 µM single dose
Procedure: as §1

NCI/ADR-RES = test: NCI-60 one-dose screen (ovarian cancer); settings: 10 µM single dose, 48 h
Procedure: as §1

HCC-2998 = test: NCI-60 five-dose assay (colon cancer); settings: 48 h, SRB
MALME-3M [4] = test: NCI-60 five-dose assay (melanoma); settings: 48 h, SRB
HOP-62 = test: NCI-60 five-dose assay (non-small cell lung cancer); settings: 48 h, SRB
SR = test: NCI-60 five-dose assay (leukemia); settings: 48 h, SRB
EKVX = test: NCI-60 five-dose assay (non-small cell lung cancer); settings: 48 h, SRB
HOP-92 = test: as above; settings: 48 h, SRB
NCI-H322M = test: as above; settings: 48 h, SRB
SNB-19 [5] = test: NCI-60 five-dose assay (CNS cancer); settings: 48 h, SRB
SK-MEL-2 [6] = test: NCI-60 five-dose assay (melanoma); settings: 48 h, SRB
SK-MEL-5 [7] = test: NCI-60 five-dose assay (melanoma); settings: 48 h, SRB
RXF 393 = test: NCI-60 five-dose assay (renal cancer); settings: 48 h, SRB
A498 = test: NCI-60 five-dose assay (renal cancer); settings: 48 h, SRB
MDA-MB-468 = test: NCI-60 five-dose assay (breast cancer); settings: 48 h, SRB
SK-MEL-5 [8] = test: NCI-60 one-dose screen (melanoma); settings: 10 µM single dose, 48 h
Procedure: as §1

UACC-62 = test: NCI-60 one-dose screen (melanoma); settings: 10 µM single dose, 48 h
Procedure: as §1

LOX IMVI = test: NCI-60 one-dose screen (melanoma); settings: 10 µM single dose, 48 h
Procedure: as §1

SK-MEL-2 [9] = test: NCI-60 one-dose screen (melanoma); settings: 10 µM single dose
Procedure: as §1

MALME-3M [10] = test: NCI-60 one-dose screen (melanoma); settings: 10 µM single dose, 48 h
Procedure: as §1

MDA-MB-435 = test: NCI-60 one-dose screen (melanoma); settings: 10 µM single dose, 48 h
Procedure: as §1

SK-MEL-28 = test: NCI-60 one-dose screen (melanoma); settings: 10 µM single dose, 48 h
Procedure: as §1

UACC-257 = test: NCI-60 one-dose screen (melanoma); settings: 10 µM single dose, 48 h
Procedure: as §1

786-0 = test: NCI-60 five-dose assay (renal cancer); settings: 48 h, SRB
SF-539 = test: NCI-60 one-dose screen (CNS cancer); settings: 10 µM single dose, 48 h
Procedure: as §1

SNB-75 [11] = test: NCI-60 one-dose screen (CNS cancer); settings: 10 µM single dose, 48 h
Procedure: as §1

SNB-19 [12] = test: NCI-60 one-dose screen (CNS cancer); settings: 10 µM single dose, 48 h
Procedure: as §1

U251 = test: NCI-60 one-dose screen (CNS cancer); settings: 10 µM single dose, 48 h
Procedure: as §1

SF-268 = test: NCI-60 one-dose screen (CNS cancer); settings: 10 µM single dose, 48 h
Procedure: as §1

SF-295 = test: NCI-60 one-dose screen (CNS cancer); settings: 10 µM single dose, 48 h
Procedure: as §1

[13] = Homo sapiens, read-out: LC50 (the source's name)

COc1cc(NC2=C(Cl)C(=O)c3nc(C)ccc3C2=O)cc(OC)c1 [AQQ5]
TGI (SNB-75 [1]): 5.37 µM
GI50 (SNB-75 [1]; Homo sapiens): 1.94 µM
LC50 (50% lethal concentration) (SNB-75 [1]; Homo sapiens): 23.2 µM
TGI (SK-OV-3 [2]): 25.1 µM
GI50 (SK-OV-3 [2]; Homo sapiens): 12.6 µM
LC50 (50% net cell kill) (SK-OV-3 [2]; Homo sapiens): 50.1 µM
TGI (NCI-H460): 8.07 µM
GI50 (NCI-H460; Homo sapiens): 2.68 µM
CC50 (NCI-H460; [13]): 82.6 µM
TGI (RPMI-8226): 5.19 µM
GI50 (RPMI-8226; Homo sapiens): 1.79 µM
CC50 (RPMI-8226; [13]): > 100 µM
GP (growth percentage) (OVCAR-4): −93.28%
GP (growth percentage) (IGROV1): −23.13%
GP (growth percentage) (OVCAR-8): −0.82%
GP (growth percentage) (SK-OV-3 [3]): 93.82%
GP (growth percentage) (OVCAR-5; 48 h): 22.00%
inhibition at 10 µM (OVCAR-5; Homo sapiens): 78%
GP (growth percentage) (NCI/ADR-RES): −1.26%
TGI (HCC-2998): 3.26 µM
GI50 (HCC-2998; Homo sapiens): 1.81 µM
LC50 (concentration killing 50% of cells) (HCC-2998; Homo sapiens): 5.88 µM
TGI (MALME-3M [4]): 3.28 µM
GI50 (MALME-3M [4]; Homo sapiens): 1.76 µM
LC50 (MALME-3M [4]; Homo sapiens): 6.11 µM
TGI (HOP-62): 14.1 µM
GI50 (HOP-62; Homo sapiens): 4.26 µM
LC50 (concentration killing 50% of cells) (HOP-62; Homo sapiens): 37.7 µM
TGI (SR): 2.43 µM
GI50 (SR; Homo sapiens): 0.35 µM
CC50 (SR; [13]): > 100 µM
TGI (EKVX): 3.12 µM
GI50 (EKVX; Homo sapiens): 1.6 µM
CC50 (EKVX; [13]): 6.08 µM
TGI (HOP-92): 3.17 µM
GI50 (HOP-92; Homo sapiens): 1.73 µM
LC50 (50% lethal concentration) (HOP-92; Homo sapiens): 5.83 µM
TGI (NCI-H322M): 12.8 µM
GI50 (NCI-H322M; Homo sapiens): 3.42 µM
CC50 (NCI-H322M; [13]): 35.8 µM
TGI (SNB-19 [5]): 18.8 µM
GI50 (SNB-19 [5]; Homo sapiens): 5.82 µM
CC50 (SNB-19 [5]; [13]): 44.2 µM
TGI (SK-MEL-2 [6]): 3.10 µM
GI50 (SK-MEL-2 [6]; Homo sapiens): 1.59 µM
CC50 (SK-MEL-2 [6]; [13]): 6.03 µM
TGI (SK-MEL-5 [7]): 2.97 µM
GI50 (SK-MEL-5 [7]; Homo sapiens): 1.62 µM
CC50 (SK-MEL-5 [7]; [13]): 5.47 µM
TGI (RXF 393): 2.99 µM
GI50 (RXF 393; Homo sapiens): 1.63 µM
LC50 (RXF 393; Homo sapiens): 5.48 µM
TGI (A498): 11.4 µM
GI50 (A498; Homo sapiens): 2.35 µM
LC50 (A498; Homo sapiens): 33.8 µM
TGI (MDA-MB-468): 2.57 µM
GI50 (MDA-MB-468; Homo sapiens): 1.23 µM
LC50 (MDA-MB-468; Homo sapiens): 5.37 µM
GP (growth percentage) (SK-MEL-5 [8]): −74.93%
GP (growth percentage) (UACC-62): −43.56%
GP (growth percentage) (LOX IMVI): −82.62%
GP (growth percentage) (SK-MEL-2 [9]; 48 h): 5.03%
inhibition at 10 µM (SK-MEL-2 [9]; Homo sapiens): 95%
GP (growth percentage) (MALME-3M [10]): −89.37%
GP (growth percentage) (MDA-MB-435): −87.43%
GP (growth percentage) (SK-MEL-28): −73.06%
GP (growth percentage) (UACC-257): −92.05%
TGI (786-0): 2.88 µM
GI50 (786-0; Homo sapiens): 1.52 µM
LC50 (786-0; Homo sapiens): 5.44 µM
GP (growth percentage) (SF-539): −30.92%
GP (growth percentage) (SNB-75 [11]): −4.09%
GP (growth percentage) (SNB-19 [12]): 30.42%
GP (growth percentage) (U251): 36.76%
GP (growth percentage) (SF-268): 37.00%
GP (growth percentage) (SF-295): 51.57%
